In patent US10662193B2, “Carbazole and carboline compounds for use in the diagnosis, treatment, alleviation or prevention of disorders associated with amyloid or amyloid-like proteins” (AC IMMUNE SA, priority 2014, dated 2020):

Key:
[1] = system: tau tangles/Aβ plaques on AD brain sections; experiment: Assay 1: direct staining of human Alzheimer's disease brain sections (fluorescence); assay type: binding; set-up: key to Direct staining of tau tangles/Aβ plaques on AD brain sections at 100 μM / Direct staining of tau tangles on AD brain sections at 100 μM / Direct staining of Aβ plaques on AD brain sections at 100 μM / Direct staining of tau tangles on AD brain sections (footnote a: at 250 μM): − (No); +++ (strong); ++ (good); + (weak)
Procedure: Assay 1 (Fluorescence Based Assay):
(§1) Direct Binding of Compounds of this Invention to Human Alzheimer's Disease Brain Sections and/or Displacement of RefA and Compound B
(§2) Frozen sections with a thickness of […] from the amygdala of donors diagnosed with Braak stage V-VI Alzheimer's Disease (Braak, H.; Braak, E. Acta Neuropathol., 1991, 82, 239-259), were purchased from a commercial provider (Tissue Solutions) and kept at −80° C. until use.
Direct Staining of Human Alzheimer's Disease Brain Sections
Brain sections were encircled with pap pen liquid blocker to reduce the volume of solution for the different incubations. Sections were fixed for 15 min at 4° C. with 4% paraformaldehyde and washed three times 5 minutes with PBS at room temperature. […] To reduce the auto-fluorescence of the tissue, the sections were incubated in a solution of 0.1% Sudan Black (Sigma 199664) in 70% ethanol for 15 min at room temperature in the dark, washed four times for 5 minutes with PBS, and mounted using ProLong Gold Antifade reagent (Invitrogen P36930). Sections were then analyzed on the Nikon Eclipse Ti microscope to detect staining and imaged using Nikon DS-Fi2 camera and NIS-Element AR4.13.1 software.

[2] = system: tau tangles on AD brain section; experiment: Assay 1: displacement of RefA on human AD brain sections (fluorescence); assay type: binding; conditions: 1 μM RefA vs. 250 μM compound
Procedure: as §1, §2
Displacement of RefA and Compound B
Brain sections were mainly treated as described above. Test compounds were, however, incubated on the section at 250 μM in 50% ethanol for 20 min at room temperature, and then directly incubated with the fluorescent reference compounds RefA and Compound B, each at 1 μM in 50% ethanol for 20 min at room temperature. RefA and Compound B stainings were visualized using the 470 nm and 365 nm excitation filters, respectively. Images were acquired, and tangles and plaques quantified using the NIS-Element software. Only those compounds not directly staining tangles or plaques at the same wavelengths as RefA and Compound B were tested in the displacement assay.
Structure of RefA (Tago et al., J. Label. Compd. Radiopharm. 2013, DOI: 10.1002/jlcr.3133)

[3] = 100 μM compound, human AD brain sections, fluorescence, cell does not say tangles or plaques
[4] = 100 μM in 50% ethanol, 20 min, "(tangles)" beside the symbol = tangles stained

SMILES	Direct staining of tau tangles/Aβ plaques on AD brain sections at 100 μM [1, 3]	other results
Cn1c2ccncc2c2ccc(Nc3cnn(CCF)c3)nc21 [Example 40]		Direct staining of tau tangles on AD brain sections at 100 μM ([1]; 100 μM compound): +++ (tangles); Competition on AD brain section tau tangles (1 μM RefA vs. 250 μM compound) [2]: 91%
Cn1c2ccncc2c2ccc(Nc3cnn(CCCCF)c3)nc21 [Example 45]	−	Competition on AD brain section tau tangles (1 μM RefA vs. 250 μM compound) [2]: 39%
Cn1c2ccncc2c2ccc(Nc3ccnn3CCF)nc21 [Example 46]	−	Competition on AD brain section tau tangles (1 μM RefA vs. 250 μM compound) [2]: 55%
Cn1c2ccncc2c2ccc(Nc3ccn(CCF)n3)nc21 [Example 47]		Direct staining of tau tangles on AD brain sections at 100 μM ([1]; 100 μM compound): ++ (tangles); Competition on AD brain section tau tangles (1 μM RefA vs. 250 μM compound) [2]: 89%
Cn1c2ccncc2c2ccc(Nc3cccc(NCCF)n3)nc21 [Example 78]		Direct staining of tau tangles on AD brain sections at 100 μM ([1]; 100 μM compound): ++ (tangles); Competition on AD brain section tau tangles (1 μM RefA vs. 250 μM compound) [2]: 91%
Cn1c2c(c3ccc(Nc4cccc(F)n4)nc31)C(=O)NCC2 [Example 184]		Direct staining of Aβ plaques on AD brain sections at 100 μM ([1]; 100 μM compound): + (plaques)
CN1CCc2c(c3ccc(Nc4cccc(F)n4)nc3n2C)C1=O [Example 185]		Direct staining of Aβ plaques on AD brain sections at 100 μM ([1]; 100 μM compound): + (plaques)
Cn1c2c(c3ccc(Nc4cnn(CCF)c4)nc31)C(=O)NCC2 [Example 186]		Direct staining of Aβ plaques on AD brain sections at 100 μM ([1]; 100 μM compound): + (plaques)
Cn1c2c(c3ccc(Nc4ccc(C#N)c(F)c4)nc31)C(=O)N(CCF)CC2 [Example 187]		Direct staining of tau tangles on AD brain sections at 100 μM ([1]; 100 μM compound): + (tangles)
Cn1c2c(c3ccc(Nc4ccc5nsnc5c4)nc31)C(=O)N(CCF)CC2 [Example 188]	−	
CN1CCc2c(c3ccc(Nc4ccn(CCF)n4)nc3n2C)C1=O [Example 190]	−	
CN1CCc2c(c3ccc(Nc4cnn(CCCF)c4)nc3n2C)C1=O [Example 191]	−	
Cn1c2cc[nH]c(=O)c2c2ccc(Nc3cccc(OC(F)F)c3)nc21 [Example 193]	−	
Cn1ccc2c(c1=O)c1ccc(Nc3ccc(F)c(F)c3)nc1n2C [Example 194]	−	
CN1CCc2c(c3ccc(N4CCC[C@@H](F)C4)nc3n2C)C1=O [Example 196]	−	
CN1CCc2c(c3ccc(Nc4ccc(OCCF)c(F)c4)nc3n2C)C1=O [Example 198]	−	

SMILES	Direct staining of tau tangles/Aβ plaques on AD brain sections at 100 μM [1, 3]	other results
Cn1c2c(c3ccc(Nc4ccc(OCCF)c(F)c4)nc31)C(=O)NCC2 [Example 199]		Direct staining of Aβ plaques on AD brain sections at 100 μM ([1]; 100 μM compound): + (tangles) + (plaques); Direct staining of tau tangles on AD brain sections at 100 μM ([1]; 100 μM compound): + (tangles) + (plaques)
CN1CCc2c(c3ccc(Nc4ccc(F)c(OCCF)c4)nc3n2C)C1=O [Example 200]		Direct staining of Aβ plaques on AD brain sections at 100 μM ([1]; 100 μM compound): + (tangles) + (plaques); Direct staining of tau tangles on AD brain sections at 100 μM ([1]; 100 μM compound): + (tangles) + (plaques)
CN1CCc2c(c3ccc(Nc4ccc(O)c(F)c4)nc3n2C)C1=O [Example 202]	−	
CN1CCc2c(c3ccc(Nc4ccc(F)c(O)c4)nc3n2C)C1=O [Example 203]	−	
CN1CCc2c(c3ccc(Nc4ccnc(OCCF)c4)nc3n2C)C1=O [Example 204]	−	
Cn1c2c(c3ccc(Nc4ccnc(OCCF)c4)nc31)C(=O)NCC2 [Example 205]	−	
CN1CCc2c(c3ccc(Nc4ccc(OCCF)cn4)nc3n2C)C1=O [Example 206]	−	
Cn1c2c(c3ccc(Nc4ccc(OCCF)cn4)nc31)C(=O)NCC2 [Example 207]	−	
Cn1c2c(c3ccc(Nc4cc(OCCF)ccn4)nc31)C(=O)NCC2 [Example 208]	−	
CN1CCc2c(c3ccc(Nc4cccc(OCCF)n4)nc3n2C)C1=O [Example 209]	−	
Cn1c2c(c3ccc(Nc4cccc(OCCF)n4)nc31)C(=O)NCC2 [Example 210]	−	
CN1CCc2c(c3ccc(Nc4ccc(F)c([N+](=O)[O-])c4)nc3n2C)C1=O [Example 211]	−	
CN1CCc2c(c3ccc(Nc4ccc(F)c([N+](C)(C)C)c4)nc3n2C)C1=O [Example 212]	−	
Cn1c2c(c3ccc(Nc4ccc(F)c(F)c4)nc31)C(=O)N(CCO)CC2 [Example 215]		Direct staining of tau tangles/Aβ plaques on AD brain sections at 100 μM [1, 4]: −
CN(C)C(=O)CCc1ccc(/C=C2/C=CC(c3cccs3)N2)n1B(F)F (stereo not drawn) [Prep. Example 17, reference compound]		Direct staining of tau tangles/Aβ plaques on AD brain sections at 100 μM [1, 4]: −
COc1ccc(C2C(CCC(=O)NCCCCCC(=O)N(C)C)=C/C(=C/c3[nH]c(C)cc3C)N2B(F)F)cc1 (stereo not drawn) [Prep. Example 18, reference compound]		Direct staining of tau tangles/Aβ plaques on AD brain sections at 100 μM [1, 4]: −
